Eleven compounds from patent US20260327264A1, “PEPTIDE INHIBITORS OF INTERLEUKIN-23 RECEPTOR” (Zealand Pharma A/S, priority 2023, published 2026) can be followed below.

The target in experiment [1] is T1, human IL-23R (Homo sapiens, UniProt Q5VWK5).
T1 construct: Nanoluc luciferase (Nluc); secretion signal encoded by the plasmid (not specified); expressed in transfected cells; crude membranes used in the assay
T1 sequence (Q5VWK5 22-629): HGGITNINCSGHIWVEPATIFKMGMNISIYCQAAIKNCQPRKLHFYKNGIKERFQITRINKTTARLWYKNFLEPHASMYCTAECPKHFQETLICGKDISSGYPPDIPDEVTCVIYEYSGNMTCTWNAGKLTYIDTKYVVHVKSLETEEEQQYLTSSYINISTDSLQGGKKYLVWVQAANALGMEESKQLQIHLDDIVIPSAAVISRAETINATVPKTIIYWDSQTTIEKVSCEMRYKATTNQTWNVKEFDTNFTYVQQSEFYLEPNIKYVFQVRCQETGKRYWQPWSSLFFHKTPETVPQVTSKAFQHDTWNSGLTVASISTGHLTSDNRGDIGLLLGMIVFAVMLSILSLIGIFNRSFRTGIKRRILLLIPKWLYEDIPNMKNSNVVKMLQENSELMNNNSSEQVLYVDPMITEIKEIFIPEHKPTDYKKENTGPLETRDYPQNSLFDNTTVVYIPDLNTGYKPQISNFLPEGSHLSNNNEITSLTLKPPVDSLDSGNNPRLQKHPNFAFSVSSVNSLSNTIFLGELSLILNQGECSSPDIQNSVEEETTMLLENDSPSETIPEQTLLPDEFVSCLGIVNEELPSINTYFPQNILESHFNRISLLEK
Kind of experiment: Binding assay: displacement of fluorophore (TAMRA)-labelled reference compound from human IL-23R (BRET, Nluc-IL23R fusion protein membranes). Particulars: for Emax: read-out: % displacement (hIL-23R binding).

The test system of experiment [2] is IL-23 mediated STAT3 signalling (DB cells). Kind of experiment: Functional inhibition of IL-23 mediated STAT3 signalling (phospho-STAT3 Tyr705) in DB cells. In kind it is cell-based, human. Particulars: for IC50: Table 3-2, EC80 of hIL-23, read-out: hIL-23 (pSTAT3) antagonist IC50; for hIL-23 (pSTAT3) antagonist % inhibition: Table 3-2, maximal inhibitory response, EC80 of hIL-23. The source says: Upon binding of IL-23, the IL-23R forms a heterodimer signalling complex together with IL-12R β1, which through the JAK2/STAT3 pathway promotes phosphorylation of STAT3 to form phospho-STAT3.
For compounds tested in this assay, the response was normalized relative to control values to calculate the IC50 and maximal inhibitory response from a concentration response curve of the compound in presence of a fixed concentration of human IL-23.
The assay procedure was as follows. […] Following preincubation of the DB cells with inhibitor for 15 min in a cell incubator (37° C., 5% CO2), 20 μL of the prepared 3× the EC80 of hIL-23 solution was added to each well and incubated for 90 min in a cell incubator (37° C., 5% CO2). For some wells buffer only or IL-23 only corresponding to the EC80 was added to obtain readouts needed for normalization. To terminate the assay, the plate was spun at 1000 G for 5 min to pellet cells, the supernatant removed using an 8-channel manual pipette, and then added 50 μL/well Complete Lysis Buffer from the MSD STAT3 kit (Cat #K150SVD, Mesoscale) to the cell pellet. To completely lyse cells to release phospho-STAT3 for detection, the plate was shaken for 10 min at room temperature (500 rpm) sealed with aluminium foil and placed at −80° C. for a minimum of 15 min. Detection of the phospho-STAT3 level in the cell lysate from the individual wells was determined using the MSD STAT3 kit (Cat #K150SVD, Mesoscale) and read on a Meso QuickPlex SQ 120 plate reader (Mesoscale).
For data analysis raw data counts from the Meso QuickPlex SQ 120 plate reader were normalized relative to the response by the EC80 of hIL-23 alone (no compound added) and the buffer level.

Molecules are shown by their SMILES. *1 amine or outer side, *2 acyl side, *3 side chain or, on linkers, in order; H or OH if unused. Where a SMILES comes first, the peptide text is derived from it. Bridges are numbered along the chain shown (N, C = ends). [ ]: non-standard residue; d: D form. 2Nal = N[C@@H](Cc1ccc2ccccc2c1)C(=O)O; AEF = NCCOc1ccc(C[C@H](N)C(=O)O)cc1; X1 = O=C(Cc1ccc(CN[*:1])cc1)[*:2]; 3Pal = N[C@@H](Cc1cccnc1)C(=O)O; αMeL = CC(C)C[C@](C)(N)C(=O)O; CH2COCH2 = O=C(C[*:1])C[*:2]; 3Amb = NCc1cccc(C(=O)O)c1; NMeA = CN[C@@H](C)C(=O)O; Dab = NCC[C@H](N)C(=O)O; Aib = CC(C)(N)C(=O)O; βAla = NCCC(=O)O

With `CC(C)C[C@]1(C)NC(=O)[C@H](Cc2ccc3ccccc3c2)NC(=O)[C@H](Cc2ccc(OCCN)cc2)NC(=O)[C@@H]2CSCC(=O)CSC[C@H](NC(=O)[C@H](CO)NC(=O)[C@H](Cc3cccnc3)NC(=O)CCNC(=O)CC[C@@H](C(=O)N[C@H](CCCNC(=N)N)C(N)=O)NC1=O)C(=O)N[C@@H](Cc1c[nH]c3ccccc13)C(=O)N[C@@H](CCC(N)=O)C(=O)N2` [Compound 1, [3-Aminopropanoyl](4c)*[3-(3-Pyridyl)-Ala]SC(2a)WQC(2a)[Y(2-aminoethoxy)][2-Nal][2-Me-Leu]E(4c)[{d}R]-[NH2]] ([βAla][3Pal]SCWQC[AEF][2Nal][αMeL]E[dR]-NH2; linker 4-7 via CH2COCH2; lactam N-11), in experiment [1], the Emax turned out to be 105%.

`CC(C)C[C@]1(C)NC(=O)[C@H](Cc2ccc3ccccc3c2)NC(=O)[C@H](Cc2ccc(OCCN)cc2)NC(=O)[C@@H]2CSCC(=O)CSC[C@H](NC(=O)[C@H](CO)NC(=O)CCNC(=O)[C@H](Cc3cccnc3)NC(=O)CC[C@@H](C(=O)N[C@H](CCCNC(=N)N)C(N)=O)NC1=O)C(=O)N[C@@H](Cc1c[nH]c3ccccc13)C(=O)N[C@@H](CCC(N)=O)C(=O)N2` [Compound 2, [3-(3-Pyridyl)-Ala](4c)*[3-Aminopropanoy]SC(2a)WQC(2a)[Y(2-aminoethoxy)][2-Nal][2-Me-Leu]E(4c)[{d}R]-[NH2]] ([3Pal][βAla]SCWQC[AEF][2Nal][αMeL]E[dR]-NH2; linker 4-7 via CH2COCH2; lactam N-11): the Emax in experiment [1] was determined as 103%.

As to `CC(C)C[C@]1(C)NC(=O)[C@H](Cc2ccc3ccccc3c2)NC(=O)[C@H](Cc2ccc(OCCN)cc2)NC(=O)[C@@H]2CCNC(=O)CC[C@H](NC(=O)[C@H](CO)NC(=O)Cc3ccc(cc3)CNC(=O)CC[C@@H](C(=O)NC[C@@H](N[C@@H](Cc3cccnc3)C(N)=O)C(F)(F)F)NC1=O)C(=O)N[C@@H](Cc1c[nH]c3ccccc13)C(=O)N[C@@H](CCC(N)=O)C(=O)N2` [Compound 16, [4-Aminomethyl-phenylacetyl](1c)*SE(2c)WQ[Dab](2c)[Y(2-aminoethoxy)][2-Nal][2-Me-Leu]E(1c)[{d}Gly-CF3][3-(3-Pyridyl)-Ala]-[NH2]], in experiment [2], the IC50 is 1.4 nM and the “hIL-23 (pSTAT3) antagonist % inhibition” value is on record as 97%.

Take `CC(C)C[C@]1(C)NC(=O)[C@H](Cc2ccc3ccccc3c2)NC(=O)[C@H](Cc2ccc(OCCN)cc2)NC(=O)[C@@H]2CCNC(=O)CC[C@H](NC(=O)[C@H](CO)NC(=O)Cc3ccc(cc3)CNC(=O)CC[C@@H](C(=O)NC[C@H](N[C@@H](Cc3cccnc3)C(N)=O)C(F)(F)F)NC1=O)C(=O)N[C@@H](Cc1c[nH]c3ccccc13)C(=O)N[C@@H](CCC(N)=O)C(=O)N2` [Compound 17, [4-Aminomethyl-phenylacetyl](1c)*SE(2c)WQ[Dab](2c)[Y(2-aminoethoxy)][2-Nal][2-Me-Leu]E(1c)[Gly-CF3][3-(3-Pyridyl)-Ala]-[NH2]]: in experiment [1], the IC50 came out at 1.2 nM and the Emax is 98%.

Regarding `CNC(=O)[C@H](Cc1cccnc1)NC(=O)[C@H](CCN)NC(=O)[C@@H]1CCC(=O)NCc2ccc(cc2)CC(=O)N[C@@H](C)C(=O)N[C@H]2CCC(=O)NCC[C@H](NC(=O)[C@H](CCC(N)=O)NC(=O)[C@H](Cc3c[nH]c4ccccc34)NC2=O)C(=O)N[C@@H](Cc2ccc(OCCN)cc2)C(=O)N[C@@H](CC2CC2)C(=O)NC(C)(C)C(=O)N1` [Compound 42, [4-Aminomethyl-phenylacetyl](1c)*AE(2c)WQ[Dab](2c)[Y(2-aminoethoxy)][Cyclopropyl-Ala][Aib]E(1c)[Dab][3-(3-Pyridyl)-Ala]-[NHMe]], in experiment [1], the IC50 came out at 12 nM and the Emax turned out to be 100%.

In the case of `CNC(=O)[C@H](Cc1cccnc1)NC(=O)[C@H](CCN)NC(=O)[C@@H]1CCC(=O)NCc2ccc(cc2)CC(=O)N[C@@H](C)C(=O)N[C@H]2CCC(=O)NCC[C@H](NC(=O)[C@H](CCC(N)=O)NC(=O)[C@H](Cc3c[nH]c4ccccc34)NC2=O)C(=O)N[C@@H](Cc2c[nH]c3ccccc23)CC(=O)N[C@@H](Cc2ccc3ccccc3c2)C(=O)NC(C)(C)C(=O)N1` [Compound 45, [4-Aminomethyl-phenylacetyl](1c)*AE(2c)WQ[Dab](2c)[beta-hTrp][2-Nal][Aib]E(1c)[Dab][3-(3-Pyridyl)-Ala]-[NHMe]], in experiment [1], the Emax came out at 104%.

Regarding `CNC(=O)[C@H](Cc1cccnc1)NC(=O)[C@H](CCN)NC(=O)[C@@H]1CCC(=O)NCc2ccc(cc2)CC(=O)N(C)[C@@H](C)C(=O)N[C@H]2CCC(=O)NCC[C@H](NC(=O)[C@H](CCC(N)=O)NC(=O)[C@H](Cc3c[nH]c4ccccc34)NC2=O)C(=O)N[C@@H](Cc2ccc(OCCN)cc2)C(=O)N[C@@H](Cc2ccc3ccccc3c2)C(=O)NC(C)(C)C(=O)N1` [Compound 48, [4-aminomethyl-phenylacetyl(1c)*][N—Me-Ala]E(2c)WQ[Dab](2c)[Y(2-aminoethoxy)][2Nal][Aib]E(1c)[Dab][3-(3-Pyridyl)-alanyl]-[NHMe]] ([X1][NMeA]EWQ[Dab][AEF][2Nal][Aib]E[Dab][3Pal]-NHMe; lactam 3-6, N-10), in experiment [1], the IC50 came out at 0.01 nM and the Emax turned out to be 96%.

In the case of `CNC(=O)[C@H](Cc1cccnc1)NC(=O)[C@H](COC)NC(=O)[C@@H]1CCC(=O)NCc2ccc(cc2)CC(=O)N[C@@H](C)C(=O)N[C@H]2CCC(=O)NCC[C@H](NC(=O)[C@H](CCC(N)=O)NC(=O)[C@H](Cc3c[nH]c4ccccc34)NC2=O)C(=O)N[C@@H](Cc2ccc(N3CCOCC3)cc2)C(=O)N[C@@H](Cc2ccc3ccccc3c2)C(=O)NC(C)(C)C(=O)N1` [Compound 53, [4-aminomethyl-phenylacetyl](1c)*AE(2c)WQ[Dab](2c)[F(4-morpholine)][2Nal][Aib]E(1c)[Ser(OCH3)][3-(3-Pyridyl)-alanyl]-[NHMe]], in experiment [1], the half-maximal inhibitory concentration (IC50) was 0.23 nM and the Emax was 102%.

For the compound `CC(=O)N[C@@H](CC(=O)O)C(=O)N[C@H]1CCC(=O)NCCCC[C@@H](C(=O)N[C@@H](CCCNC(=N)N)C(N)=O)NC(=O)[C@H](CC(C)C)NC(=O)[C@H](Cc2ccc3ccccc3c2)NC(=O)[C@H](Cc2c[nH]c3ccccc23)NC(=O)[C@@H]2CSCC(=O)CSC[C@H](NC(=O)[C@H](CO)NC1=O)C(=O)N[C@@H](Cc1c[nH]c3ccccc13)C(=O)N[C@@H](CCC(N)=O)C(=O)N2` [Ref 17, [Ac]-DE(1c)SC(2a)WQC(2a)W[2-Nal]LK(1c)R-[NH2], reference compound], the IC50 in experiment [2] stood at 370 nM.

With `CC(C)C[C@]1(C)NC(=O)[C@H](Cc2ccc3ccccc3c2)NC(=O)[C@H](Cc2ccc(OCCN)cc2)NC(=O)[C@@H]2CSCC(=O)CSC[C@H](NC(=O)[C@H](CO)NC(=O)c3cccc(c3)CNC(=O)CC[C@@H](C(=O)N[C@@H](CCCNC(=N)N)C(=O)N[C@@H](Cc3cccnc3)C(N)=O)NC1=O)C(=O)N[C@@H](Cc1c[nH]c3ccccc13)C(=O)N[C@@H](CCC(N)=O)C(=O)N2` [Ref 78, [(3-Aminomethyl)benzoyl](1c)*SC(2a)WQC(2a)[Y(2-aminoethoxy)][2-Nal][2-Me-Leu]E(1c)R[3-(3-Pyridyl)-Ala]-[NH2], reference compound] ([3Amb]SCWQC[AEF][2Nal][αMeL]ER[3Pal]-NH2; linker 3-6 via CH2COCH2; lactam N-10), in experiment [2], the IC50 stood at 0.13 nM and the “hIL-23 (pSTAT3) antagonist % inhibition” value is listed as 100%.

For the compound `CC(C)C[C@]1(C)NC(=O)[C@H](Cc2ccc3ccccc3c2)NC(=O)[C@H](Cc2ccc(OCCN)cc2)NC(=O)[C@@H]2CSCC(=O)CSC[C@H](NC(=O)[C@H](CO)NC(=O)Cc3ccc(cc3)CNC(=O)CC[C@@H](C(=O)N[C@H](CCCNC(=N)N)C(N)=O)NC1=O)C(=O)N[C@@H](Cc1c[nH]c3ccccc13)C(=O)N[C@@H](CCC(N)=O)C(=O)N2` [Ref 80, [4-Aminomethyl-phenylacetyl](1c)*SC(2a)WQC(2a)[Y(2-aminoethoxy)][2-Nal][2-Me-Leu]E(1c)[{d}R]-[NH2], reference compound] ([X1]SCWQC[AEF][2Nal][αMeL]E[dR]-NH2; linker 3-6 via CH2COCH2; lactam N-10), in experiment [2], the IC50 was found to be 11 nM and the “hIL-23 (pSTAT3) antagonist % inhibition” value is on record as 97%.
